Values quoted from earlier work, collected in patent US7452901B2, “Anti-cancer phosphonate analogs” (Gilead Sciences, Inc., priority 2003, dated 2008).

Biological target: T1, purine nucleotide phosphorylase (Homo sapiens, UniProt P00491)
T1 sequence (P00491 1-289): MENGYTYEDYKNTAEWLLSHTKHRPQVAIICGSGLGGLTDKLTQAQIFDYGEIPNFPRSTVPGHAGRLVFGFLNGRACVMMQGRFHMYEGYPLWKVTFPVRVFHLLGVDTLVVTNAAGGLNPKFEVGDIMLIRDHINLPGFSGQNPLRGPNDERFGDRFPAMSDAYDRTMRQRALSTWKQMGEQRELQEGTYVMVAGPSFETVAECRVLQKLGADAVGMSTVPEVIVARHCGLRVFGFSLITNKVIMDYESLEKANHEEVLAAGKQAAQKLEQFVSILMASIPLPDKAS
Conditions: disclosed at the ACS meeting (2000)

- IC50: 20 nM
Structure (SMILES): Nc1nc2c([C@@H](CO)c3ccccc3F)c[nH]c2c(=O)[nH]1 [PNP-405]
